Tests used:
Assay type in all cases: physicochemical
[1] = order parameter S in liquid crystal ZLI 2452 (dichroic ratio by polarized absorbance); details: room temperature, in ZLI 2452
Description: The order parameter S was determined in accordance with the known equation [formula] in a commercial measurement cell of homogeneous edge orientation (polyimide). The dichroic ratio CR was determined by measuring the absorbences E^.parallel. (measurement with light polarized parallel to the preferential direction of the nematic phase) and E^.perp. (measurement with light polarized perpendicular to the preferential direction of the nematic phase) and applying the relationship [formula] the dye concentration being so chosen as to give an E^.parallel. within the range from 1 to 2. The measurements were carried out on an Hitachi U 3200 spectrophotometer.

[2] = solubility in liquid crystal ZLI 2452 (saturated solution, comparison of absorbances); details: room temperature, in ZLI 2452
Description: The solubility was determined as follows:
50 mg of the dye was stirred at room temperature into 1 ml of liquid crystal for 1 week, the saturated solution was centrifuged off the residue, and the solubility was determined by comparing the absorbences.

[3] = absorption maximum in methylene chloride

SMILES	Order parameter S (at RT) [1]	Solubility L [%] (at RT) [2]	λmax [nm] (CH2 Cl2) [3]
CCCCC(CC)COc1ccc(N=Nc2ccc(N=Nc3ccc(N=Nc4ccc(OCc5ccccc5)cc4C)cc3)cc2)c(CC)c1 (stereo not drawn) [Example 1]	0.815	18.7%	417 nm
CCCCCCCCOc1ccc(N=Nc2ccc(N=Nc3ccc(N=Nc4ccc(OCc5ccc(CCCCC)cc5)cc4C)cc3)cc2)c(CC)c1 [Example 2]	0.83	5.1%	418 nm
CCCCCCCCOc1ccc(N=Nc2ccc(N=Nc3ccc(N=Nc4ccc(OCc5ccc(CCCCC)cc5)cc4CC)cc3)cc2)c(C)c1 [Example 3]	0.82	5.3%	418 nm
CCCCCCCCOc1ccc(N=Nc2ccc(N=Nc3ccc(N=Nc4ccc(OCc5ccccc5)cc4CC)cc3)cc2)c(CC)c1 [Example 4]	0.79	6.4%	419 nm
CCCCCCCCOc1ccc(N=Nc2ccc(N=Nc3ccc(N=Nc4ccc(OCc5ccc(OCCCCC)cc5)cc4CC)cc3)cc2)c(CC)c1 [Example 5]	0.79	3.5%	418 nm
CCCCC(CC)COc1ccc(N=Nc2ccc(N=Nc3ccc(N=Nc4ccc(OCc5ccccc5)c5ccccc45)cc3)cc2)c(CC)c1 (stereo not drawn) [Example 9]	0.81	2.0%	443 nm
CCCCC(CC)COc1ccc(N=Nc2ccc(N=Nc3ccc(N=Nc4ccc(OCc5ccccc5)cc4CC)cc3)cc2)c2ccccc12 (stereo not drawn) [Example 10]	0.81	7.1%	445 nm
CCCCCCCCOc1ccc(N=Nc2ccc(N=Nc3ccc(N=Nc4ccc(OCc5ccc(OCCCCC)cc5)c5ccccc45)cc3)cc2)c(CC)c1 [Example 11]	0.79	3.4%	437 nm
CCCCCCCCOc1ccc(N=Nc2ccc(N=Nc3ccc(N=Nc4ccc(OCc5ccc(CCCCC)cc5)c5ccccc45)cc3)cc2)c(CC)c1 [Example 12]	0.79	2.4%	441 nm
CCCCCOc1ccc(COc2ccc(N=Nc3ccc(N=Nc4ccc(N=Nc5ccc(OCC(CC)CCCC)cc5CC)cc4)cc3)c3ccccc23)cc1 (stereo not drawn) [Example 13]	0.79	2.9%	435 nm
CCCCCc1ccc(COc2ccc(N=Nc3ccc(N=Nc4ccc(N=Nc5ccc(OCC(CC)CCCC)cc5CC)cc4)cc3)c3ccccc23)cc1 (stereo not drawn) [Example 14]	0.81	5.0%	443 nm
CCCCCCCCCCCCNc1ccc(N=Nc2ccc(N=Nc3ccc(N=Nc4ccc(OCCCCCCCC)cc4CC)cc3)cc2)c2ccccc12 [Example 15]	0.81	2.0%	535 nm
CCCCCCCCCCCCNc1ccc(N=Nc2ccc(N=Nc3ccc(N=Nc4ccc(OCC(CC)CCCC)cc4CC)cc3)cc2)c2ccccc12 (stereo not drawn) [Example 16]	0.80	8.0%	533 nm
CCCCC(CC)COc1ccc(N=Nc2ccc(N=Nc3ccc(N=Nc4ccc(OCc5ccccc5)c5ccccc45)cc3)c3ccccc23)c(CC)c1 (stereo not drawn) [Example 19]	0.79	1.6%	486 nm
CCCCC(CC)COc1ccc(N=Nc2ccc(N=Nc3ccc(N=Nc4ccc(OCc5ccccc5)cc4CC)c4ccccc34)cc2)c2ccccc12 (stereo not drawn) [Example 20]	0.80	1.3%	489 nm
CCCCC(CC)COc1ccc(N=Nc2ccc(N=Nc3ccc(N=Nc4ccc(OCc5ccccc5)cc4CC)c(OC)c3)cc2)c2ccccc12 (stereo not drawn) [Example 21]	0.79	5.5%	459 nm
